In ChEMBL document CHEMBL4507303, “Data for DCP probe TP-004” (2021):

What was measured:
[1] = target: Protein kinase C epsilon type (Homo sapiens) (UniProt Q02156); details: Compound concentration 1000.0 nM
[2] = target: Serine/threonine-protein kinase PAK 4 (Homo sapiens) (UniProt O96013); details: Compound concentration 1000.0 nM
[3] = tested on: Mast/stem cell growth factor receptor Kit (Homo sapiens), P10721 [V559D,V654A]; details: Compound concentration 1000.0 nM
[4] = target: Macrophage colony-stimulating factor 1 receptor (Homo sapiens) (UniProt P07333); details: Compound concentration 1000.0 nM
[5] = tested on: ALK tyrosine kinase receptor (Homo sapiens), Q9UM73 [L1196M]; details: Compound concentration 1000.0 nM
[6] = target: Ephrin type-A receptor 5 (Homo sapiens) (UniProt P54756); details: Compound concentration 1000.0 nM
[7] = target: Mitogen-activated protein kinase 15 (Homo sapiens) (UniProt Q8TD08); details: Compound concentration 1000.0 nM
Sequence of Mitogen-activated protein kinase 15 (Homo sapiens) (Q8TD08 whole entry): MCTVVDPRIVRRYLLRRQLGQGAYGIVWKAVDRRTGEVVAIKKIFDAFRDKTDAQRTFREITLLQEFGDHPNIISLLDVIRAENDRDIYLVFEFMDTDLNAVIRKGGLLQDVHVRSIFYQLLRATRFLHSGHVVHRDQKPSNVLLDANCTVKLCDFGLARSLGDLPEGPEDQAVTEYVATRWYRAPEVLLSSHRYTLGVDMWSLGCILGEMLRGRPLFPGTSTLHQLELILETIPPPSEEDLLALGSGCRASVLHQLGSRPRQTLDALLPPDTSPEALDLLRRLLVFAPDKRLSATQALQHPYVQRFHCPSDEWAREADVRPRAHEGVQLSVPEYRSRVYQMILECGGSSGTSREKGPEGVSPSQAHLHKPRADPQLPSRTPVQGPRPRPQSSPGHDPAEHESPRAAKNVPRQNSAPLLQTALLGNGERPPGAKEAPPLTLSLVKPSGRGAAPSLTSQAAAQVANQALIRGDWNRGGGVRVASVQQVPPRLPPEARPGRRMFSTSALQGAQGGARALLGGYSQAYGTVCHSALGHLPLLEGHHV

[8] = target: Dual specificity protein kinase CLK3 (Homo sapiens) (UniProt P49761); details: Compound concentration 1000.0 nM
[9] = target: Megakaryocyte-associated tyrosine-protein kinase (Homo sapiens) (UniProt P42679); details: Compound concentration 1000.0 nM
[10] = target: Serine/threonine-protein kinase DCLK2 (Homo sapiens) (UniProt Q8N568); details: Compound concentration 1000.0 nM
[11] = target: GABA-A receptor; anion channel; test: GPCRScan assay: inhibition of GABAA/BZP; format: protein-complex assay, Rattus norvegicus; design: radioligand conc. used [nm] 0.6 – 4.0, parental cells brain tissue
[12] = target: Calcium/calmodulin-dependent protein kinase kinase 2 (Homo sapiens) (UniProt Q96RR4); details: Compound concentration 1000.0 nM
[13] = target: Phosphorylase b kinase regulatory subunit alpha, liver isoform (Homo sapiens) (UniProt P46019); details: Compound concentration 1000.0 nM
[14] = target: Phosphatidylinositol 4-phosphate 3-kinase C2 domain-containing subunit beta (Homo sapiens) (UniProt O00750); details: Compound concentration 1000.0 nM
[15] = tested on: Serine/threonine-protein kinase B-raf (Homo sapiens), P15056 [V600E]; details: Compound concentration 1000.0 nM
Sequence of Serine/threonine-protein kinase B-raf (Homo sapiens), P15056 [V600E] (P15056 whole entry V600E): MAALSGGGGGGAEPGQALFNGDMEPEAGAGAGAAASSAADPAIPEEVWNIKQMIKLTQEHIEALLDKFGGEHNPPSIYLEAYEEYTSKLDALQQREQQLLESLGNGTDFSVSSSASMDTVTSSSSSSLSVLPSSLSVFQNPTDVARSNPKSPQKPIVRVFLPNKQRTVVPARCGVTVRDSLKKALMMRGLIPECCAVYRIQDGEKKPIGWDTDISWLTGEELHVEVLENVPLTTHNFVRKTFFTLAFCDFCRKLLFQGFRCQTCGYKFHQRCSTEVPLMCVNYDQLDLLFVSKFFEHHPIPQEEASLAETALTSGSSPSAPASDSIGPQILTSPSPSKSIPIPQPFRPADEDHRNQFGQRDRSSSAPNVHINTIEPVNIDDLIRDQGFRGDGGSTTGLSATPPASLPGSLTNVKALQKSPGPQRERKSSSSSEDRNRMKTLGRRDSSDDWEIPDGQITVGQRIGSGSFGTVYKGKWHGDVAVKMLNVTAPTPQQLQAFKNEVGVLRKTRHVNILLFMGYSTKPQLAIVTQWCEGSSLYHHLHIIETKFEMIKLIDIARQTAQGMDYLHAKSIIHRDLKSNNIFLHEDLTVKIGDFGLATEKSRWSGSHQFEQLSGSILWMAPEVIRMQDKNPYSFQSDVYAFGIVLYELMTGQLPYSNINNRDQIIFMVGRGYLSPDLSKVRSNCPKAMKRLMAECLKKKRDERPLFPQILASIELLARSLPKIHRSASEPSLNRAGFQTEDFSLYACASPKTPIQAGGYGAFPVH

[16] = target: Histamine H3 receptor (Homo sapiens) (UniProt Q9Y5N1); details: Compound concentration 10.0 uM
[17] = target: Ephrin type-A receptor 2 (Homo sapiens) (UniProt P29317); details: Compound concentration 1000.0 nM
[18] = target: Tyrosine-protein kinase ABL1 (Homo sapiens) (UniProt P00519); details: Compound concentration 1000.0 nM
Sequence of Tyrosine-protein kinase ABL1 (Homo sapiens) (P00519 whole entry): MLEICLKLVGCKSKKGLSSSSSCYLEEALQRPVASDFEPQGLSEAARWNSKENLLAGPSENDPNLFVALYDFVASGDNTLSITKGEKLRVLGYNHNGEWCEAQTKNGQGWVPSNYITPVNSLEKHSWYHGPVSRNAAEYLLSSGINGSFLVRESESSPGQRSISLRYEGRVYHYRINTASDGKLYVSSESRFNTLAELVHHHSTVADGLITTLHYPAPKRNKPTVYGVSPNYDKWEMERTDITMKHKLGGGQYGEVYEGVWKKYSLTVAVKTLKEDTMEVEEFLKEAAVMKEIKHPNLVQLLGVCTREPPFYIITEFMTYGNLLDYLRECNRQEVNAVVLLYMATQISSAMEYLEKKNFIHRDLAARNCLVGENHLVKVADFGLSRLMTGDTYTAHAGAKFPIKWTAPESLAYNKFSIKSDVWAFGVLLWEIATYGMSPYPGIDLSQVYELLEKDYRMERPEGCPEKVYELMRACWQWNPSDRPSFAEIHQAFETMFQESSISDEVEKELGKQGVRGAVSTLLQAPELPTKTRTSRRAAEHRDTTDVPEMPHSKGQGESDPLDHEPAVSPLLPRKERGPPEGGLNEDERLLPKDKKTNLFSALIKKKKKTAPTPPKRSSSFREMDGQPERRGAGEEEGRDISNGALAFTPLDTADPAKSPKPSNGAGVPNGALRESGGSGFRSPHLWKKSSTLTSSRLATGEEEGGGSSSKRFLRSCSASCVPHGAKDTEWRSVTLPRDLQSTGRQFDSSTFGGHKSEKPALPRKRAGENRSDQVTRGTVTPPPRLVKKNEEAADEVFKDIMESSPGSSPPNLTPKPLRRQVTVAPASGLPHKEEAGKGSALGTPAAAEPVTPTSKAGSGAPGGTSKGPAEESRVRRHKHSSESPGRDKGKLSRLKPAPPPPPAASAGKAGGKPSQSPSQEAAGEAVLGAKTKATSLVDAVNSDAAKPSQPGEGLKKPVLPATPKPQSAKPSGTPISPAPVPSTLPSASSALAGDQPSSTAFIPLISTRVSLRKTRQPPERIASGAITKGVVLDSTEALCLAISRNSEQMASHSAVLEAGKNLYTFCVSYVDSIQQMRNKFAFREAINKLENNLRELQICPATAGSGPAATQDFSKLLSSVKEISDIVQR

[19] = target: Cyclin-dependent kinase-like 3 (Homo sapiens) (UniProt Q8IVW4); details: Compound concentration 1000.0 nM
Sequence of Cyclin-dependent kinase-like 3 (Homo sapiens) (Q8IVW4 whole entry, looked up): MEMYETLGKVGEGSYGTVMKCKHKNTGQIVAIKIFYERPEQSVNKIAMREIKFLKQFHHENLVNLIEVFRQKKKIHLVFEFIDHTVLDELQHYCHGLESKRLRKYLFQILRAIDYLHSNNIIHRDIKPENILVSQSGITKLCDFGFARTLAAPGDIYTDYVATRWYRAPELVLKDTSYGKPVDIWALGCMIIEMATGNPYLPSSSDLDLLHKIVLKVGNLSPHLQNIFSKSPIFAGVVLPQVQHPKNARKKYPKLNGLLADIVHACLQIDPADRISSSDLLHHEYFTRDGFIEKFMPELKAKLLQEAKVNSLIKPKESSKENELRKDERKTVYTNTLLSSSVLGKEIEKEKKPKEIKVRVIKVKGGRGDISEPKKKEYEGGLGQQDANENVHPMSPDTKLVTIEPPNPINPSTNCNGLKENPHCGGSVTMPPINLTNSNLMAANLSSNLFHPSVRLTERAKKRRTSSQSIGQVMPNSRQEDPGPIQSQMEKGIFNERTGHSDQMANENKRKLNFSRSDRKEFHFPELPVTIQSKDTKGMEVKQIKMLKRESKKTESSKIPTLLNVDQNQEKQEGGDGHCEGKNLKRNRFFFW

[20] = target: Maternal embryonic leucine zipper kinase (Homo sapiens) (UniProt Q14680); details: Compound concentration 1000.0 nM
Sequence of Maternal embryonic leucine zipper kinase (Homo sapiens) (Q14680 whole entry, looked up): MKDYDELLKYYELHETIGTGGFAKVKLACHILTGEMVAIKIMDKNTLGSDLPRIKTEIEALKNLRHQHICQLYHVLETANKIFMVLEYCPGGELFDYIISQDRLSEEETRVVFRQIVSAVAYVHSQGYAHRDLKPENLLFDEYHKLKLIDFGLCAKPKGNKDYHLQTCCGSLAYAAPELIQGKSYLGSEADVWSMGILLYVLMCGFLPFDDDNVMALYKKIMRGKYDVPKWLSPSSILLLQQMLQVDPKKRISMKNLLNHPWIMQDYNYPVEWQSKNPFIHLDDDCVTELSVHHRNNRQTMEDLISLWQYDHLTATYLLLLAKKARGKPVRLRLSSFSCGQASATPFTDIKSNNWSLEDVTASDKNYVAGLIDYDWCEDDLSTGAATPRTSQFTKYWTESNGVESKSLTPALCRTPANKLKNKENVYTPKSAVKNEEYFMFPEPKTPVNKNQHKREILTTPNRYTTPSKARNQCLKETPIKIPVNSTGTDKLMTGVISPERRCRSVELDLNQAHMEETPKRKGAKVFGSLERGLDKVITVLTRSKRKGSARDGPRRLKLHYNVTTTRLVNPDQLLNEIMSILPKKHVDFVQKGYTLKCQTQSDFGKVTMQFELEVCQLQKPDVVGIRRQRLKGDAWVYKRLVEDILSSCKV

[21] = target: Serine/threonine-protein kinase PLK2 (Homo sapiens) (UniProt Q9NYY3); details: Compound concentration 1000.0 nM
[22] = target: D(2) dopamine receptor (Homo sapiens) (UniProt P14416); details: Compound concentration 10.0 uM
[23] = tested on: Phosphatidylinositol 4,5-bisphosphate 3-kinase catalytic subunit alpha isoform (Homo sapiens), P42336 [H1047Y]; details: Compound concentration 1000.0 nM
[24] = target: Cyclin-dependent kinase 18 (Homo sapiens) (UniProt Q07002); details: Compound concentration 1000.0 nM
[25] = target: Ribosomal protein S6 kinase alpha-5 (Homo sapiens) (UniProt O75582); details: Compound concentration 1000.0 nM
[26] = target: Alpha-1B adrenergic receptor (Homo sapiens) (UniProt P35368); details: Compound concentration 10.0 uM
[27] = target: Epithelial discoidin domain-containing receptor 1 (Homo sapiens) (UniProt Q08345); details: Compound concentration 1000.0 nM
[28] = target: Activin receptor type-1B (Homo sapiens) (UniProt P36896); details: Compound concentration 1000.0 nM
[29] = tested on: Leucine-rich repeat serine/threonine-protein kinase 2 (Homo sapiens), Q5S007 [G2019S]; details: Compound concentration 1000.0 nM
[30] = target: Vascular endothelial growth factor receptor 2 (Homo sapiens) (UniProt P35968); details: Compound concentration 1000.0 nM
[31] = tested on: Mast/stem cell growth factor receptor Kit (Homo sapiens), P10721 [A829P]; details: Compound concentration 1000.0 nM
[32] = tested on: Tyrosine-protein kinase ABL1 (Homo sapiens), P00519 [F317I]; details: Compound concentration 1000.0 nM
Sequence of Tyrosine-protein kinase ABL1 (Homo sapiens), P00519 [F317I] (P00519 whole entry F317I): as the sequence (P00519 whole entry) above, with F317I counted along it

[33] = target: Ribosomal protein S6 kinase alpha-6 (Homo sapiens) (UniProt Q9UK32); details: Compound concentration 1000.0 nM
[34] = target: Serine/threonine-protein kinase MRCK alpha (Homo sapiens) (UniProt Q5VT25); details: Compound concentration 1000.0 nM
[35] = target: Dual specificity protein kinase CLK2 (Homo sapiens) (UniProt P49760); details: Compound concentration 1000.0 nM
[36] = target: Cyclin-dependent kinase 13 (Homo sapiens) (UniProt Q14004); details: Compound concentration 1000.0 nM
[37] = target: Dual specificity protein kinase CLK1 (Homo sapiens) (UniProt P49759); details: Compound concentration 1000.0 nM
[38] = tested on: Proto-oncogene tyrosine-protein kinase receptor Ret (Homo sapiens), P07949 [M918T]; details: Compound concentration 1000.0 nM
[39] = tested on: Phosphatidylinositol 4,5-bisphosphate 3-kinase catalytic subunit alpha isoform (Homo sapiens), P42336 [I800L]; details: Compound concentration 1000.0 nM
[40] = target: Phosphatidylinositol 4,5-bisphosphate 3-kinase catalytic subunit alpha isoform (Homo sapiens) (UniProt P42336); details: Compound concentration 1000.0 nM
[41] = target: Ribosomal protein S6 kinase alpha-2 (Homo sapiens) (UniProt Q15349); details: Compound concentration 1000.0 nM
[42] = target: Serine/threonine-protein kinase Nek6 (Homo sapiens) (UniProt Q9HC98); details: Compound concentration 1000.0 nM
Sequence of Serine/threonine-protein kinase Nek6 (Homo sapiens) (Q9HC98 whole entry): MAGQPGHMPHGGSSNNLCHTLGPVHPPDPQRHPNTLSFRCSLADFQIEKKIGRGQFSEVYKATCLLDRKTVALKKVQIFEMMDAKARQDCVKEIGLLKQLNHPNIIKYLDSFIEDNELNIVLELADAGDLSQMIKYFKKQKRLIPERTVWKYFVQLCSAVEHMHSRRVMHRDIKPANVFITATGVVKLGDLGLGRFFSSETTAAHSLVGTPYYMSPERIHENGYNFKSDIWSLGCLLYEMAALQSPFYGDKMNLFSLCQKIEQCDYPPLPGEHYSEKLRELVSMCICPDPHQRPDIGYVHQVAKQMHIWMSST

[43] = target: Histamine H2 receptor (Homo sapiens) (UniProt P25021); details: Compound concentration 10.0 uM
Sequence of Histamine H2 receptor (Homo sapiens) (P25021 whole entry): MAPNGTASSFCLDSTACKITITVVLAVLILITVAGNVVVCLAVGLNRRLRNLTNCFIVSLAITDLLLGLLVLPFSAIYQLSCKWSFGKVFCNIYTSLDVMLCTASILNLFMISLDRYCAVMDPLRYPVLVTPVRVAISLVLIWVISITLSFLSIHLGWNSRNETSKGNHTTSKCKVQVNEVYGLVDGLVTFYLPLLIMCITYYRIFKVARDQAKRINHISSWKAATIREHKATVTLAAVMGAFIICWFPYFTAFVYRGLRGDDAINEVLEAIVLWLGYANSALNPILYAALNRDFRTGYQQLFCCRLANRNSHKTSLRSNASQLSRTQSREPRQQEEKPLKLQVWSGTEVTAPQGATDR

[44] = tested on: Receptor-type tyrosine-protein kinase FLT3 (Homo sapiens), P36888 [D835V]; details: Compound concentration 1000.0 nM
[45] = tested on: Mast/stem cell growth factor receptor Kit (Homo sapiens), P10721 [V559D,T670I]; details: Compound concentration 1000.0 nM

Sequence of Serine/threonine-protein kinase PAK 4 (Homo sapiens) (O96013 whole entry, looked up): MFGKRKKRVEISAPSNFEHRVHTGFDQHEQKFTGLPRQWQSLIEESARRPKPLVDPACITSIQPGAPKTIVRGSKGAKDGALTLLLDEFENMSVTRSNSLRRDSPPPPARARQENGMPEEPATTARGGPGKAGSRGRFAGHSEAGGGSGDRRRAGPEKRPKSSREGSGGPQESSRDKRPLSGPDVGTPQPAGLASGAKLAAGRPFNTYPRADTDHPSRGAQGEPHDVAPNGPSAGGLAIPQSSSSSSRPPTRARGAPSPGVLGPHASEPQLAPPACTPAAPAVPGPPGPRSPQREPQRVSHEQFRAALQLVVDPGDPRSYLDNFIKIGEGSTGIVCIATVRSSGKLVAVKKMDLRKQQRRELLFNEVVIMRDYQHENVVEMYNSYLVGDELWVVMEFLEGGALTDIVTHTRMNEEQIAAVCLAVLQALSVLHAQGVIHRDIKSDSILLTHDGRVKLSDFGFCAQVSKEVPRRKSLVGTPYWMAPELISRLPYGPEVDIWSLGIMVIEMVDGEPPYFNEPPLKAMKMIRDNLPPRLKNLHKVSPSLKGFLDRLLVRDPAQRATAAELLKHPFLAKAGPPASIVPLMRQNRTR

## Cc1nc(N2CC[C@@H](O)C2)ncc1-c1cc(C(F)(F)F)cc2[nH]ncc12 [TP-004]
[1]
  residual activity: 88%
[2]
  residual activity: 100%
[3]
  residual activity: 94%
[4]
  residual activity: 89%
[5]
  residual activity: 98%
[6]
  residual activity: 100%
[7]
  residual activity: 86%
[8]
  residual activity: 76%
[9]
  residual activity: 86%
[10]
  residual activity: 100%
[11]
  Ki: 4.54 µM
[12]
  residual activity: 100%
[13]
  residual activity: 100%
[14]
  residual activity: 100%
[15]
  residual activity: 77%
[16]
  inhibition: 28.6%
[17]
  residual activity: 100%
[18]
  residual activity: 83%
[19]
  residual activity: 100%
[20]
  residual activity: 100%
[21]
  residual activity: 76%
[22]
  inhibition: 12.6%
[23]
  residual activity: 99%
[24]
  residual activity: 100%
[25]
  residual activity: 100%
[26]
  inhibition: 15.9%
[27]
  residual activity: 100%
[28]
  residual activity: 100%
[29]
  residual activity: 67%
[30]
  residual activity: 53%
[31]
  residual activity: 60%
[32]
  residual activity: 87%
[33]
  residual activity: 51%
[34]
  residual activity: 100%
[35]
  residual activity: 100%
[36]
  residual activity: 90%
[37]
  residual activity: 87%
[38]
  residual activity: 100%
[39]
  residual activity: 66%
[40]
  residual activity: 100%
[41]
  residual activity: 100%
[42]
  residual activity: 89%
[43]
  inhibition: -8.45%
[44]
  residual activity: 58%
[45]
  residual activity: 68%
